Assay results from ChEMBL document CHEMBL1145933, “Novel sst(4)-selective somatostatin (SRIF) agonists. 1. Lead identification using a betide scan” (J Med Chem, 2003).
Where a SMILES comes first, the peptide text is derived from it. Bridges are numbered along the chain shown (N, C = ends). [ ]: non-standard residue; d: D form.

Key:
[1] = molecular target: Somatostatin receptor type 3 (Homo sapiens, UniProt P32745); test: Binding affinity towards human Somatostatin receptor type 3 using 125I-[Leu,DTrp,Tyr]SRIF-28 as radioligand
Chain of Somatostatin receptor type 3 (P32745 whole entry): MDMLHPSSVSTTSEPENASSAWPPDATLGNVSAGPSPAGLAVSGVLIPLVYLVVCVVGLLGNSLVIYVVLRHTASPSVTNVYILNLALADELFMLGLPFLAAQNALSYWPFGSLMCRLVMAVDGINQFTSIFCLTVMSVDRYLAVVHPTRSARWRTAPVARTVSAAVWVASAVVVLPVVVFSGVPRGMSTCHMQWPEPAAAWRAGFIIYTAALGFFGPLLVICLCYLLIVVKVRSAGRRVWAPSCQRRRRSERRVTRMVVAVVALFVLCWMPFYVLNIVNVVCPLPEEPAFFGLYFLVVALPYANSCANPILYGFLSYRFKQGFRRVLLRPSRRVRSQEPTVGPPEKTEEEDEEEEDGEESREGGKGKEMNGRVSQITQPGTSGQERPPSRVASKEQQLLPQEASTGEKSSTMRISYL

[2] = molecular target: Somatostatin receptor type 2 (Homo sapiens, UniProt P30874); test: Binding affinity towards human Somatostatin receptor type 2 using 125I-[Leu,DTrp,Tyr]SRIF-28 as radioligand
Chain of Somatostatin receptor type 2 (P30874 whole entry): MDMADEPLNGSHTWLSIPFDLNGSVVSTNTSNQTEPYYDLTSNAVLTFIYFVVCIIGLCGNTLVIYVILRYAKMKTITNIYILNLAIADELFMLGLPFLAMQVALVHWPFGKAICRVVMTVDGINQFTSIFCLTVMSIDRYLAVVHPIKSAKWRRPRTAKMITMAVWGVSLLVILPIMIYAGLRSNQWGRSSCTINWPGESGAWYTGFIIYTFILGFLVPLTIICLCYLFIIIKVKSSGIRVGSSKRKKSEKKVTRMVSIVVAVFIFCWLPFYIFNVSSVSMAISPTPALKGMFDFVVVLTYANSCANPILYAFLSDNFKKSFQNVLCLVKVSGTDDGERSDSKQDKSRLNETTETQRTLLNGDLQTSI

[3] = molecular target: Somatostatin receptor type 5 (Homo sapiens, UniProt P35346); test: Binding affinity towards human Somatostatin receptor type 5 using 125I-[Leu,DTrp,Tyr]SRIF-28 as radioligand
Chain of Somatostatin receptor type 5 (P35346 whole entry): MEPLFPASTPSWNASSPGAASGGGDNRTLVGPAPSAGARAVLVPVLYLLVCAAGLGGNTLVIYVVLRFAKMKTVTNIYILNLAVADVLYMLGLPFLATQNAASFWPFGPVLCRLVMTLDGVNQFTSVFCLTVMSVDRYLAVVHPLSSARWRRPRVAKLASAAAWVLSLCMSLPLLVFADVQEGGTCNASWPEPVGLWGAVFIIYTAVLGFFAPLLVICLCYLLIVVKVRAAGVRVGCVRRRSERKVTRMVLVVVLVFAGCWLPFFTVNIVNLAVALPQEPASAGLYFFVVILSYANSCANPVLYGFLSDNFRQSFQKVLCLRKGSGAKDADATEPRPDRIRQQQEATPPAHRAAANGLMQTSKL

[4] = molecular target: Somatostatin receptor type 1 (Homo sapiens, UniProt P30872); test: Binding affinity towards human Somatostatin receptor type 1 using 125I-[Leu,DTrp,Tyr]SRIF-28 as radioligand
Chain of Somatostatin receptor type 1 (P30872 whole entry): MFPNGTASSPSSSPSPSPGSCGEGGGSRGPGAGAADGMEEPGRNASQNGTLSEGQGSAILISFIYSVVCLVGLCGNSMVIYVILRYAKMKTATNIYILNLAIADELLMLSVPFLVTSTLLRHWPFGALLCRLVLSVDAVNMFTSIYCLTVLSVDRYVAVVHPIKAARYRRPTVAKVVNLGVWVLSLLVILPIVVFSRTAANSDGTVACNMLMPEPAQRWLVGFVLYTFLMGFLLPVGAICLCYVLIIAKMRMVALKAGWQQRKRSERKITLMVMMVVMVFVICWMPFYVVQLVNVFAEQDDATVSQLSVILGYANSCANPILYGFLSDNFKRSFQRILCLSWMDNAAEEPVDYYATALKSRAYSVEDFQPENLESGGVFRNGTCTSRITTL

[5] = molecular target: Somatostatin receptor type 4 (Homo sapiens, UniProt P31391); test: Binding affinity towards human Somatostatin receptor type 4 using 125I-[Leu,DTrp,Tyr]SRIF-28 as radioligand
Chain of Somatostatin receptor type 4 (P31391 whole entry): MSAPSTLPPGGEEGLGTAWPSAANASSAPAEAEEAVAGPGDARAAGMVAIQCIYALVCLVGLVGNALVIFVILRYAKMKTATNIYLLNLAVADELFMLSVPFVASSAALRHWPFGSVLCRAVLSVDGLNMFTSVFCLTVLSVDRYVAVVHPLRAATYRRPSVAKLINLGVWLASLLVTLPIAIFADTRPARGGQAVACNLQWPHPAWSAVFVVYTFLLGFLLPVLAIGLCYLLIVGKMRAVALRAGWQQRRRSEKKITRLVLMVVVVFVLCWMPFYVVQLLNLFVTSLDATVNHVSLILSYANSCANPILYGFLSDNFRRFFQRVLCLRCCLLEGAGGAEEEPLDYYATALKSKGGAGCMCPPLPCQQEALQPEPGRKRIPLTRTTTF

Row | Structure (SMILES) | IC50 [1] [µM] | IC50 [2] [µM] | IC50 [3] [µM] | IC50 [4] [µM] | IC50 [5] [µM]
1 | C[C@@H](O)[C@@H]1NC(=O)[C@@H](N(C)C(=O)CCN)NC(=O)[C@@H](Cc2c[nH]c3ccccc23)NC(=O)[C@H](Cc2ccccc2)NC(=O)[C@H](Cc2ccccc2)NC(=O)[C@@H](N)CSSC[C@@H](C(=O)O)NC(=O)[C@H](Cc2ccccc2)NC1=O | > 1 | > 10 | > 1 | > 10 | 0.429
2 | COC(=O)[C@H](CCCN=C(N)N)NC(=O)CCCc1c(-c2ccccc2)[nH]c2c(F)cc(F)cc12 | > 1 | > 1 | > 10 | > 1 | 
3 | C[C@@H](O)[C@@H]1NC(=O)[C@H](CCCCN)NC(=O)[C@H](Cc2c[nH]c3ccccc23)NC(=O)[C@H](Cc2ccccc2)NC(=O)[C@H](Cc2ccccc2)NC(=O)[C@@H](N)CSSC[C@@H](C(=O)O)NC(=O)[C@H](Cc2ccccc2)NC1=O (H-CFFWKTFC-OH; disulfide 1-8) |  | 0.041 | 0.046 | 0.027 | 0.0018
4 | C[C@@H](O)[C@@H]1NC(=O)[C@H](CCCCN)NC(=O)[C@@H](Cc2c[nH]c3ccccc23)NC(=O)[C@H](Cc2ccccc2)NC(=O)[C@H](Cc2ccccc2)NC(=O)[C@@H](N)CSSC[C@@H](C(=O)O)NC(=O)[C@H](Cc2ccccc2)NC1=O (H-CFF[dW]KTFC-OH; disulfide 1-8) |  | 0.13 | 0.014 | 0.0053 | 0.0007
5 | C[C@@H](O)[C@@H]1NC(=O)[C@@H](NC(=O)CCN)NC(=O)[C@@H](Cc2c[nH]c3ccccc23)NC(=O)[C@H](Cc2ccccc2)NC(=O)[C@H](Cc2ccccc2)NC(=O)[C@@H](N)CSSC[C@@H](C(=O)O)NC(=O)[C@H](Cc2ccccc2)NC1=O (stereo in doubt; 16) | > 1 | > 1 | > 10 | > 10 | > 10
6 | C[C@@H](O)[C@@H]1NC(=O)[C@@H](NC(=O)CCN)NC(=O)[C@@H](Cc2c[nH]c3ccccc23)NC(=O)[C@H](Cc2ccccc2)NC(=O)[C@H](Cc2ccccc2)NC(=O)[C@@H](N)CSSC[C@@H](C(=O)O)NC(=O)[C@H](Cc2ccccc2)NC1=O (stereo in doubt; 17) | > 1 | > 1 | > 10 | > 10 | > 1
7 | CN(C(=O)CO)[C@H]1NC(=O)[C@H](CCCCN)NC(=O)[C@@H](Cc2c[nH]c3ccccc23)NC(=O)[C@H](Cc2ccccc2)NC(=O)[C@H](Cc2ccccc2)NC(=O)[C@@H](N)CSSC[C@@H](C(=O)O)NC(=O)[C@H](Cc2ccccc2)NC1=O (stereo in doubt; 20) | > 1 | > 1 | 0.211 | 0.045 | 0.0065
8 | CN(C(=O)CO)[C@H]1NC(=O)[C@H](CCCCN)NC(=O)[C@@H](Cc2c[nH]c3ccccc23)NC(=O)[C@H](Cc2ccccc2)NC(=O)[C@H](Cc2ccccc2)NC(=O)[C@@H](N)CSSC[C@@H](C(=O)O)NC(=O)[C@H](Cc2ccccc2)NC1=O (stereo in doubt; 21) | > 1 | > 1 | 0.389 | 0.86 | 0.038

Results, then the compound that gave them:

Row | IC50 [1] [µM] | IC50 [2] [µM] | IC50 [3] [µM] | IC50 [4] [µM] | IC50 [5] [µM] | Structure (SMILES)
9 | > 1 | > 1 | > 1 | > 10 | 0.08 | C[C@@H](O)[C@@H]1NC(=O)[C@H](CCCCN)NC(=O)[C@@H](Cc2c[nH]c3ccccc23)NC(=O)[C@H](Cc2ccccc2)NC(=O)[C@H](Cc2ccccc2)NC(=O)[C@@H](N)CSSC[C@@H](C(=O)O)NC(=O)[C@@H](N(C)C(=O)c2ccccc2)NC1=O
10 | 0.235 | 0.455 | 0.22 | > 10 | 0.0069 | C[C@@H](O)[C@@H]1NC(=O)[C@H](CCCCN)NC(=O)[C@@H](Cc2c[nH]c3ccccc23)NC(=O)[C@H](Cc2ccccc2)NC(=O)[C@H](Cc2ccccc2)NC(=O)[C@@H](N)CSSC[C@@H](C(=O)O)NC(=O)[C@H](N(C)C(=O)c2ccccc2)NC1=O
11 | > 1 | > 1 | > 1 | > 1 | > 1 | C[C@@H](O)[C@@H]1NC(=O)[C@H](N(C)C(=O)CCN)NC(=O)[C@@H](Cc2c[nH]c3ccccc23)NC(=O)[C@H](Cc2ccccc2)NC(=O)[C@H](Cc2ccccc2)NC(=O)[C@@H](N)CSSC[C@@H](C(=O)O)NC(=O)[C@H](Cc2ccccc2)NC1=O
12 | 0.403 | > 1 | > 1 | > 10 | 0.0054 | C[C@@H](O)[C@@H]1NC(=O)[C@H](CCCCN)NC(=O)[C@H](Cc2c[nH]c3ccccc23)NC(=O)[C@H](N(C)C(=O)c2ccccc2)NC(=O)[C@H](Cc2ccccc2)NC(=O)[C@@H](N)CSSC[C@@H](C(=O)O)NC(=O)[C@H](Cc2ccccc2)NC1=O
13 | > 10 | 0.374 | > 1 | 0.667 | 0.014 | C[C@@H](O)[C@@H]1NC(=O)[C@H](CCCCN)NC(=O)[C@@H](Cc2c[nH]c3ccccc23)NC(=O)[C@H](Cc2ccccc2)NC(=O)[C@H](N(C)C(=O)c2ccccc2)NC(=O)[C@@H](N)CSSC[C@@H](C(=O)O)NC(=O)[C@H](Cc2ccccc2)NC1=O (stereo in doubt; 4)
14 |  | > 1 |  | > 10 | > 1 | C[C@@H](O)[C@@H]1NC(=O)[C@H](CCCCN)NC(=O)[C@@H](Cc2c[nH]c3ccccc23)NC(=O)[C@H](Cc2ccccc2)NC(=O)[C@H](N(C)C(=O)c2ccccc2)NC(=O)[C@@H](N)CSSC[C@@H](C(=O)O)NC(=O)[C@H](Cc2ccccc2)NC1=O (stereo in doubt; 5)
15 | 0.725 | > 1 | > 1 | > 10 | 0.133 | C[C@@H](O)[C@@H]1NC(=O)[C@H](CCCCN)NC(=O)[C@@H](Cc2c[nH]c3ccccc23)NC(=O)[C@H](N(C)C(=O)c2ccccc2)NC(=O)[C@H](Cc2ccccc2)NC(=O)[C@H](N)CSSC[C@@H](C(=O)O)NC(=O)[C@H](Cc2ccccc2)NC1=O (stereo in doubt; 7)
16 | 0.447 | 0.46 | 0.768 |  | 0.0052 | C[C@@H](O)[C@@H]1NC(=O)[C@H](CCCCN)NC(=O)[C@@H](Cc2c[nH]c3ccccc23)NC(=O)[C@H](N(C)C(=O)c2ccccc2)NC(=O)[C@H](Cc2ccccc2)NC(=O)[C@H](N)CSSC[C@@H](C(=O)O)NC(=O)[C@H](Cc2ccccc2)NC1=O (stereo in doubt; 8)
17 | > 1 |  |  |  | 0.153 | C[C@@H](O)[C@@H]1NC(=O)[C@H](CCCCN)NC(=O)[C@@H](Cc2c[nH]c3ccccc23)NC(=O)[C@H](N(C)C(=O)c2ccccc2)NC(=O)[C@H](Cc2ccccc2)NC(=O)[C@H](N)CSSC[C@@H](C(=O)O)NC(=O)[C@H](Cc2ccccc2)NC1=O (stereo in doubt; 9)
18 | 0.382 | 0.533 | 0.46 | > 1 | 0.0034 | C[C@@H](O)[C@@H]1NC(=O)[C@H](CCCCN)NC(=O)[C@@H](Cc2c[nH]c3ccccc23)NC(=O)[C@H](N(C)C(=O)c2ccccc2)NC(=O)[C@H](Cc2ccccc2)NC(=O)[C@H](N)CSSC[C@@H](C(=O)O)NC(=O)[C@H](Cc2ccccc2)NC1=O (stereo in doubt; 10)
19 | 0.136 |  |  |  | 0.031 | C[C@@H](O)[C@@H]1NC(=O)[C@H](CCCCN)NC(=O)[C@@H](Cc2c[nH]c3ccccc23)NC(=O)[C@H](N(C)C(=O)c2ccccc2)NC(=O)[C@H](Cc2ccccc2)NC(=O)[C@H](N)CSSC[C@@H](C(=O)O)NC(=O)[C@H](Cc2ccccc2)NC1=O (stereo in doubt; 11)
